Measured values taken from patent publication US20100197712A1, “USE OF DOPAMINE STABILIZERS” (priority 2007, published 2010).
Structures can show the parent of a compound that is named as a salt.

Legend:
active rats = experiment: Video tracking: motor activity (velocity) of active rats; type: in vivo, Sprague-Dawley rats
Experimental: (§1) Prior to testing, the rats were housed for approximately 1 week with free access to food and water, in groups of four or five in Macrolon type III cages in the animal facility of the Sahlgrenska Academy at Göteborg University. The experiments were approved by the animal ethics committee in Göteborg.
(§2) OSU6162, ACR16, apomorphine and (−)-3-PPP were dissolved in 0.9% saline. A few grains of ascorbic acid were added to apomorphine solutions to prevent oxidation of the drug. Haloperidol and amisulpride were dissolved in a minimum amount of acetic acid and diluted with 5.5% glucose. The solutions were adjusted to pH 5-7 with sodium bicarbonate. Aripiprazole was dissolved in a minimum amount of heated acetic acid, diluted in warm 5.5% glucose and adjusted to pH 4-5. All drugs were administered intraperitoneally (i.p.) or subcutaneously (s.c.) in volumes of 5 ml/kg. Control treatments consisted of the appropriate vehicle administered in accordance with the drug treatment at issue.
(§3) The rats were housed in reverse daylight cycle and all handling of the animals was performed in dim light. Apomorphine was administered s.c. 5 minutes prior to testing, while all other drugs were injected i.p. or s.c. 30 minutes before testing. Single rats were introduced into rectangular arenas (l/w/h: 150×100×40 cm) illuminated indirectly by one infrared lamp (Neocom, South Korea). The rats' movements were recorded to digital (MPEG2) video files using an IR sensitive video camera (Panasonic WV-CPR480, lens: Panasonic LA-408C3) connected to a PC equipped with a MPEG-encoder (MVR1000^SX, Canopus Co.). […] Behavioural variables were extracted from the tracks in MatLab (The MathWorks, Inc., USA) with functions developed in this laboratory. Mean velocity was used to measure motor activity. Prior to calculation of velocity the tracks were subjected to a running mean filter, i.e. each sample was replaced by the mean of fifteen consecutive samples.
(§4) In several cases data from two or more experiments have been pooled. […] Confirmed outlying values (N=0-3 per experiment) were excluded from statistical analyses and graphical presentations. Data from the video tracking setting was analyzed with univariate general linear model (GLM). Following GLM analysis, comparisons versus the appropriate control groups were performed with Dunnet's post hoc test. […] Data obtained from activity boxes was analyzed with Kruskal-Wallis one-way analysis of variance by ranks. […] All statistical tests were two sided and p<0.05 was considered statistically significant.

habituated rats = experiment: Motor activity of habituated rats in activity boxes; type: in vivo, Sprague-Dawley rats; details: s.c.
Experimental: as §1, §2
Rats were housed in a normal daylight cycle and testing was performed during daytime. Animals were introduced into sound attenuated, illuminated activity boxes (1/w/h: 40×40×20 cm) and were allowed to habituate in the new environment for 65 minutes. During the following 5 minutes test drugs were injected s.c., after which the rats were returned to the boxes for another 60 minutes. Five by five rows of photocell beams at floor level allowed a computer based-system to register horizontal activity. Motor activity is presented as accumulated number of unrepeated beam breaks, i.e. several consecutive breakings of one beam is counted as one beam break. The software was set to register behaviour from the rat's first introduction into the arena until it was finally removed from the box, i.e. for 130 minutes. Activity is presented separately for t=0-30 min and t=30-60 min after injection.
as §4

[1] = test system: apomorphine induced hypomotility in rats; experiment: Apomorphine induced hypomotility in rats (video tracking); type: in vivo, Sprague-Dawley rats
Experimental: FIG. 7. […] Test drugs were administered 30 minutes prior to registration. Motor activity was measured for 30 minutes as velocity in the video tracking setting. Statistical comparisons were made versus the apomorphine group with univariate general linear model, followed by Dunnet's post hoc test. *p<0.05; *p<0.01; ***p<0.001. FIG. 8.
as §3, §4

[2] = Hartter et al., 2003; cited from earlier work
rats = details: small activity boxes; pre-treatment 30 minutes; dark hours, light turned off; preliminary
[3] = test system: amphetamine-induced hyperactivity in rats; details: Natesan et al., 2006; cited from earlier work
[4] = whole 60 min registration / either time interval
[5] = i.p., 30 min prior to 30 min tracking
[6] = apomorphine 0.16 μmol/kg s.c., test drug i.p. 30 min prior, dose range per drug

SMILES	motor activity (accumulated unrepeated beam breaks) (habituated rats; [4])	motor activity (velocity) (active rats; [5])	effect on apomorphine-induced hypomotility [1, 6]	motor activity (accumulated unrepeated beam breaks) (habituated rats; t=0-30 min after injection)	motor activity (accumulated unrepeated beam breaks) (habituated rats; t=30-60 min after injection)	also measured
CCCN1CCC[C@@H](c2cccc(O)c2)C1 [(−)-3-PPP, S-(−)-3-[3-hydroxyphenyl]-1-propylpiperidine, reference compound]	did not have any statistically significant effects on motor activity in either time interval	–	–	–	–	motor activity (velocity) (active rats; s.c., 30 min prior to 30 min tracking, OSU6162 50-200 μmol, (−)-3-PPP 2.5 and 10 μmol/kg): marked and dose-dependent inhibition on motor activity, that was statistically significant at all doses tested
CCN1CCCC1CNC(=O)c1cc(S(=O)(=O)CC)c(N)cc1OC (stereo not shown) [amisulpride, reference compound]	Neither haloperidol (0.1-0.8 μmol/kg) nor amisulpride (33-300 μmol/kg) had any significant effects on motor activity	inhibited motor activity slightly at the highest dose tested	effectively counteracted apomorphine-induced hypoactivity	–	–	effect on apomorphine-induced hypomotility ([1]; amisulpride 270 μmol/kg, s.c., data not shown): a mere tendency towards reversal of apomorphine-induced hypoactivity; penetration of biological membranes [2]: poor penetration of biological membranes
CN1CCc2cccc3c2[C@H]1Cc1ccc(O)c(O)c1-3 [apomorphine, R-(−)-Apomorphine hydrochloride hemihydrate]	–	–	–	–	–	locomotor activity (velocity) (active rats; apomorphine 0.04-0.16 μmol/kg s.c., 5 min prior to registration): dose dependent inhibiting effect on locomotor activity; motor activity (velocity) (active rats; apomorphine higher dose-interval 0.16-64 μmol/kg s.c.): motor activity began to return towards a level similar to that observed in controls; dose of maximal inhibition of motor activity (active rats; apomorphine s.c.): 0.16 µmol/kg
O=C(CCCN1CCC(O)(c2ccc(Cl)cc2)CC1)c1ccc(F)cc1 [haloperidol, reference compound]	Neither haloperidol (0.1-0.8 μmol/kg) nor amisulpride (33-300 μmol/kg) had any significant effects on motor activity	statistically significant inhibition at the highest dose	no statistically significant effects on motor activity	–	–	motor activity relative to control (active rats; haloperidol 0.8 μmol/kg, s.c.): approximately 7 % of control level
CCCN1CCC(c2cccc(S(C)(=O)=O)c2)CC1 [ACR16, 4-(3-methanesulfonylphenyl)-1-propyl-piperidine]	caused an activation, although smaller than that of OSU6162	dose-dependent and statistically significant reduction of motor activity	did not have any noticeable effect on apomorphine-induced hypoactivity	this effect increased dose-dependently	the effect appeared to peak at the dose 50 μmol/kg	effect on apomorphine-induced hypomotility ([1]; apomorphine 0.08 μmol/kg s.c., ACR16 i.p., higher dose): tended to inhibit activity further; motor activity (rats): marked reduction in motor activity; effect on amphetamine-induced hyperactivity [3]: reverse amphetamine-induced hyperactivity
O=C1CCc2ccc(OCCCCN3CCN(c4cccc(Cl)c4Cl)CC3)cc2N1 [aripiprazole, reference compound]	–	marked and dose-dependent inhibition on motor activity, that was statistically significant at all doses tested	–	dose-dependent inhibition during the first 30 minutes after injection, which was statistically significant at the highest dose	did not affect locomotor activity	–
